From publication PMC8399019, “Inhibition of Cysteine Proteases by 6,6′-Dihydroxythiobinupharidine (DTBN) from Nuphar lutea” (Molecules, 2021)

Experiments:
Format in all cases: biochemical
Human Cathepsin B = target: T1, Human Cathepsin B (Homo sapiens, UniProt P07858); test: Enzyme inhibition assay, Human Cathepsin B (casein-FITC); conditions: triplicates, value (SD)
T1 construct: purchased Sigma-Aldrich C0150
Procedure: (§1) Enzyme inhibition assays were performed in triplicates using transparent 96-well plates for Calpain, Trypsin, Papain, Cathepsin L and Cathepsin B (167008; Nunc, Roskilde, Denmark), or black ones for Cathepsin S, (Greiner 96 Polystyrol GRE96fb), according to manufacturers’ instructions. Briefly, a reaction mixture of 100 µL contained: 45µL of enzyme in assay buffer, 5 µL of inhibitor diluted in DMSO. 50 µL substrate prepared in assay buffer according to manufacturers’ instructions. The inhibitor was serially diluted in DMSO to concentrations from 0.0075 µg/µL to 0.0000075 µg/µL. A total of […] DMSO was added to the control sample. The enzyme substrate mix was added last, just before starting the fluorometric measurement. Data were collected for 1.5 h at 60 sec intervals.
(§2) Papain Latex (cat. No. p3125), Human Cathepsin B (cat.no. C0150), Trypsin and Calpain (cat. No. ab910119) and the substrate, casein-FITC, were obtained from Sigma-Aldrich. The assay was carried out in 0.3 M potassium chloride, 0.1 mM EDTA, and 3 mM DTT pH 6.5. Ex/Em = 485–535 nm. Human Cathepsins S (cat. No. 1183-cy) and L (cat.no. ab174030) and their substrates were Mca-RPKPVE-Nval-WRK (Dnp)-NH2 (ES002) and Ac-FR-AFC, respectively. They were obtained from ABCAM. Assay buffer for Human Cathepsin S was 50 mM NaOAc, 250 mM NaCl, 5 mM DTT pH 4.5. […]

Papain Latex = target: T2, Papain Latex (Carica papaya, UniProt P00784); test: Enzyme inhibition assay, Papain Latex (casein-FITC)
T2 construct: purchased Sigma-Aldrich p3125
Procedure: as §1, §2

Human Cathepsin L = target: T3, Human Cathepsin L (Homo sapiens, UniProt P07711); test: Enzyme inhibition assay, Human Cathepsin L (fluorometric); conditions: triplicates, value (SD)
T3 construct: purchased ABCAM ab174030
Procedure: as §1, §2

Human Cathepsin S = target: T4, Human Cathepsin S (Homo sapiens, UniProt P25774); test: Enzyme inhibition assay, Human Cathepsin S (fluorometric); conditions: triplicates, value (SD)
T4 construct: purchased ABCAM (so in the source) 1183-cy
Procedure: as §1, §2

T2 sequence (P00784 134-345): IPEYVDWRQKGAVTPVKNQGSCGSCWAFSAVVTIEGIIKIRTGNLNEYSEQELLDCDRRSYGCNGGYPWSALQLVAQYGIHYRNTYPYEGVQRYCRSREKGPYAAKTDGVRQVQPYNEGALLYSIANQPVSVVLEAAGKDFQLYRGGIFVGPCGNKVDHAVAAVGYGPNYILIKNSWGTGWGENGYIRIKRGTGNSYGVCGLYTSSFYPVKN
T4 sequence (P25774 115-331): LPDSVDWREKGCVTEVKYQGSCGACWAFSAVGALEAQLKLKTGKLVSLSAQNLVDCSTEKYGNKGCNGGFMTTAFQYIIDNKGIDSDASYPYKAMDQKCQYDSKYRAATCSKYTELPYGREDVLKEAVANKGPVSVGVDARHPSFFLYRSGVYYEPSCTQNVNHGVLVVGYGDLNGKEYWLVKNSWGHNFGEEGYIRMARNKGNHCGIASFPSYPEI
T3 sequence (P07711 114-333): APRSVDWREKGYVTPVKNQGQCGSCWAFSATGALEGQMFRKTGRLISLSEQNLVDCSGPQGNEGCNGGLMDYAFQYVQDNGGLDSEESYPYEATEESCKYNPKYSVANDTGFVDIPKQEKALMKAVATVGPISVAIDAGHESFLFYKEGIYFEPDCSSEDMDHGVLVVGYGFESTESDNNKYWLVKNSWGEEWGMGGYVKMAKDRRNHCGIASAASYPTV

Q: For `CC1CCC(c2ccoc2)N2C1CCC1(CSC3(CCC4C(C)CCC(c5ccoc5)N4C3O)C1)C2O` (stereo not shown) [DTBN, 6,6′-dihydroxythiobinupharidine], which IC50 (Human Cathepsin B) is on record?
A: 1360 µM

Q: And the IC50 (Papain Latex)?
A: 70.4 µM

Q: What about the IC50 (Human Cathepsin L) of the same compound?
A: 13.2 µM

Q: What about the IC50 (Human Cathepsin S) of the same compound?
A: 3.2 µM
